Earlier results on 30 molecules are cited in patent US8134031B2, “Extraction process for aldehyde product separation and catalyst recovery” (Dow Global Technologies LLC, priority 2007, dated 2012).

Each structure is given as a SMILES string. Counter-ions that a name gives are not always drawn.

For the first series the following is noted: 22° C.; experimental value (Yaw's Handbook).
In the case of `CCCC(=O)OCC` [Ethyl butyrate], the Solubility in water is given as 6168 ppmw.
On to `CCCOC=O` [Propyl formate], for which the Solubility in water is reported as 22000 ppmw.

The series is the same for the next values; noted with them: 25° C.
With `C=CCCCCCC` [1-Octene], the H2O solubility was 4.10 ppm.
Consider `CCCCCCC` [Heptane], for which the H2O solubility is 2.24 ppmw.
`CCCCCC` [Hexane]: the H2O solubility was 13.3 ppmw.

The series is the same for the next values; noted with them: 25° C.; estimated value (Yaw's Handbook).
Turning to `CCC(O)C(C)C` (stereo not drawn) [2-Methyl-3-pentanol], the Solubility in water was 25882 ppmw.
As for `CCC(C)C=O` (stereo not drawn) [2-Methylbutanal], the Solubility in water is given as 28212 ppmw.
Take `CC(C)CC=O` [3-Methylbutanal]: the Solubility in water was 27392 ppmw.
As for `CCC(=O)C(C)C` [Ethyl isopropyl ketone], the Solubility in water is 22865 ppmw.
For `CCCOC(C)=O` [Propyl acetate], the Solubility in water was 16787 ppmw.

Staying with this series, now noted: 25° C.; experimental value (Yaw's Handbook).
Regarding `CCCCCCC=O` [1-Heptanal], the Solubility in water was 1516 ppmw.
On to `C=CCCCCCC` [1-Octene], for which the Solubility in water is on record as 4.10 ppmw.
Regarding `CCCCCO` [1-Pentanol], the Solubility in water is on record as 22000 ppmw.
As to `CCCCC(C)=O` [2-Hexanone], the Solubility in water is given as 16400 ppmw.
As to `CCC(C)CO` (stereo not drawn) [2-Methyl-1-butanol], the Solubility in water is on record as 30000 ppmw.
In the case of `CCCC(C)O` (stereo not drawn) [2-Pentanol], the Solubility in water is 45000 ppmw.
Regarding `CCCC(=O)CC` [3-Hexanone], the Solubility in water was 14700 ppmw.
Turning to `CC(C)CCO` [3-Methyl-1-butanol], the Solubility in water is reported as 27000 ppmw.
For the molecule `CC(C)C(C)O` (stereo not drawn) [3-Methyl-2-butanol], the Solubility in water is reported as 56000 ppmw.
Turning to `CCC(O)CC` [3-Pentanol], the Solubility in water was 52000 ppmw.
For the molecule `O=C1CCCCC1` [Cyclohexanone], the Solubility in water is 93190 ppmw.
As to `CCC(=O)CC` [Diethyl ketone], the Solubility in water is 34000 ppmw.
As for `CC(C)OC(C)C` [Diisopropyl ether], the Solubility in water is 11250 ppmw.
`CCOC(C)=O` [Ethyl acetate]: the Solubility in water was 73720 ppmw.
Regarding `CCOC(=O)CC` [Ethyl propanoate], the Solubility in water is listed as 22000 ppmw.
For the molecule `CCCCCCC` [Heptane], the Solubility in water was 2.24 ppmw.
Turning to `CCCCCC` [Hexane], the Solubility in water is listed as 13.3 ppmw.
Take `CC(=O)OC(C)C` [Isopropyl acetate]: the Solubility in water is recorded as 29000 ppmw.
Regarding `CCCC(=O)OC` [Methyl butyrate], the Solubility in water is listed as 15000 ppmw.
Take `C=C(C)C(C)=O` [Methyl isopropenyl ketone]: the Solubility in water was 47000 ppmw.
With `CC(=O)C(C)C` [Methyl isopropyl ketone], the Solubility in water is 60800 ppmw.
On to `CCCC(C)=O` [Methyl propyl ketone], for which the Solubility in water is on record as 55360 ppmw.
Consider `CCCCC=O` [Pentanal], for which the Solubility in water was 11700 ppmw.
